In US6344206B1, “Combination of a retinoid with a polyamine polymer” (L'Oreal, priority 1997, dated 2002) one finds Degradation of retinol data, which are given here for one molecule.

The data set can be described thus: Test of stability of all-trans-retinol in ethanol during preservation at 50° C. (residual retinol by HPLC). The data set is classed as physicochemical. The note with it: retinol 0.3% w/v in ethanol without stabilizer, 20 days of storage at 50° C., aerobic medium. Here is the method: The stability of a retinoid is defined in accordance with the present invention by the percentage of retinoid which remains in its original form after the composition containing the retinoid has been stored for a given period and at a given temperature.
The study conditions are the following:
PEI at 0.25, 0.5 and 1% (by weight/volume) in ethanol;
All-trans-retinol marketed by Fluka at 0.3% (by weight/volume) in ethanol;
Aerobic medium with 55 vol % air and 45 vol % ethanol;
Preservation at 50° C. in an oven;
The level of residual retinol after one month of preservation at 50° C. in an aerobic medium (55% of volume of air) is monitored by HPLC (on a Spherisorb ODS1 C18 column) by elution with an H2O/CH3CO2H/CH3CO2NH4/acetonitrile:
The level of residual retinol after two months of storage at 50° C. in an aerobic medium (55 vol % air) is monitored by HPLC (same conditions as in Test 1).
The level of residual retinol after one month of storage at 50° C. in an aerobic medium (55 vol % air) is monitored by HPLC (same conditions as in Test 1).
From an alcoholic solution of retinol at 0.26%, the level of residual retinol after several days of storage of the formulae at 50° C. in aerobic medium (55 vol % of air) is monitored by HPLC. […]

For the molecule `CC1=C(/C=C/C(C)=C/C=C/C(C)=C/CO)C(C)(C)CCC1` [retinol, All-trans-retinol], the Degradation of retinol is on record as roughly 99%.
